According to paper PMC4806436, “Disrupted ADP-ribose metabolism with nuclear Poly (ADP-ribose) accumulation leads to different cell death pathways in presence of hydrogen peroxide in procyclic Trypanosoma brucei” (Parasites & Vectors, 2016):
pIC50: −log10 of the molar value. Entries after “also recorded” stand apart in the source; their conditions may differ. Where two headings read alike, the source gives them in different places.

Columns and labels:
TbPARP = TbPARP (Trypanosoma brucei brucei, UniProt Q0PW89); test: biochemical; conditions: 5 nM TbPARP, 500 nM NAD+, 11 min at 25 °C, mean of three dose-response curves
Protocol: The optimal conditions for the activity of purified recombinant TbPARP, were determined by using a fluorometric activity assay. Incubation at 25 °C with shaking at 300 rpm was placed in propylene plates of 96 wells (Greiner BioOne). To terminate the reaction 2 M KOH (20 μL) and 20 % acetophenone in ethanol (20 μL) were added to each well. After incubating for 10 min at 4 °C, 90 μl of 88 % formic acid was added and incubated in an oven at 110 °C for 5 min. This reaction converts remaining NAD^+ to a fluorescent derivative. After incubation, the plate was allowed to cool down for 15 min and fluorescence was measured using excitation wavelengths of 372 nm and 444 nm for excitation and emission, respectively (Varioskan Flash 4.00.53, Thermo Scientific). Consumption of NAD^+ was detected by the decrease in fluorescence. Experiments were done in triplicates. The activity in control wells were kept under 25 % by optimizing the protein concentration and the incubation time, in order to get a robust signal without slowing down the enzyme activity.
A small set of cations was also tested in order to verify whether the enzymatic activity would depend on them. […] The final assay buffer was 100 mM Na2HPO4/NaH2PO4 pH 7, 500 μM TCEP, 1 μg/μL BSA, and 0.025 mg/mL activated DNA (Sigma Aldrich) and 500 nM NAD^+ (Sigma Aldrich).
Thirty - one compounds were tested. Dilutions from DMSO stocks were made (100 μM, 10 μM and 1 μM) and aliquots of those were used in the enzymatic reaction with 10-fold dilution. Inhibitor solutions were added in triplicates to the plate, followed by the addition of the NAD^+. Reactions were initiated by addition of TbPARP diluted in the same buffer (10 nM). The plate was incubated at 25 °C with shaking (300 rpm, Biosan PST-100 HL) for 45 min. […] To detect any potential fluorescence inherent in the compounds, control reactions were carried out separately with compound alone at 10 μM final concentration. The possible fluorescence quenching properties were controlled using wells within the experimental plate containing the compound with 500 nM NAD^+ in the assay buffer.
The IC50 value for 3-AB (Alexis Biochemicals) was also determined to be used as a reference. Briefly, reaction mix together with the inhibitors at half log dilutions were added to a 96-well plate (10 data points). Reactions were incubated for 11 min at 25 °C after initiating the reaction with the addition of 5 nM TbPARP at a final volume of 50 μL. Measurement of the remaining NAD^+ is described in section Screening of TbPARP inhibitors. All reactions were performed in triplicates and three independent dose response curves were fitted for each inhibitor. Control wells with only NAD^+ or NAD^+ and enzyme were used in the curve fitting, as detailed in our previous work.

[1] = system: PAR formation in procyclic T. brucei; test: In culture inhibition of PAR formation after H2O2, Dot blot, procyclic form; format: cell-based, Trypanosoma brucei; conditions: inhibitor at 10-fold in vitro IC50 (0.23 μM 4-ANI; 65 nM EB-47; 29 nM Olaparib; 1.5 μM Rucaparib), 30 min preincubation, 500 μM H2O2 10 min
Protocol: (§1) T. brucei procyclic strain 29–13 [29] was cultured at 28 °C in SDM-79 (Bioscience) containing 10 % (v/v) FCS and 0002 % hemin. T. brucei bloodstream strain 427 90-13 [29] was cultured at 37 °C in HMI-11 (Iscore’s Modified Dulbecco’s Medium (Invitrogen), 100 mg/L sodium pyruvate, 136.1 mg/L hypoxantine, 38.7 mg/L thymidine, 28.22 mg/L bathocuproinedisulfonic acid, 181.8 mg/L L-cysteine, 3.024 mg/L sodium carbonate, 196 μM β-mercaptoethanol) containing FCS (10 % v/v). Parasite viability was analyzed by microscopy.
(§2) For in culture inhibition assays, parasites of the procyclic form of Trypanosoma brucei were grown for 48 h up to a density of 5×10^6 parasites/mL. Parasites of the bloodstream form were grown for 24 h up to a density of 5×10^5 parasites/mL. In both cases, cells were harvested and preincubated for 30 min or 10 min in PBS-Glucose 2 % with inhibitors added, after which the parasites were treated with 500 μM or 250 μM hydrogen peroxide for procyclic and bloodstream forms, respectively, for 10 min.

[2] = system: PAR formation in bloodstream T. brucei; test: In culture inhibition of PAR formation after H2O2, Dot blot, bloodstream form; format: cell-based, Trypanosoma brucei; conditions: inhibitor at 10-fold in vitro IC50 (29 nM Olaparib; 1.5 μM Rucaparib), 10 min preincubation, 250 μM H2O2
Protocol: as §1, §2

[3] = system: Trypanosoma brucei procyclic parasites; test: Effect of inhibitors on procyclic parasite growth (OD600, 48 h); format: cell-based
Protocol: Trypanosoma brucei procyclic parasites were grown in SDM-79 medium for 48 h until reaching a density of 5×10^6 cells/mL. Aliquots of 200 μl were distributed in 96-well plates and inhibitors were present at different final concentrations, as indicated in the figures. Nifurtimox (NFX) was used as a positive control in concentrations ranging from 0.25–25 μM. Culture density was checked by OD600 after 48 h.
In all experiments, triplicates were done for each condition tested and data significance was assessed by one-way Anova (GraphPad Prism5.03 version Software).

[4] = system: Trypanosoma brucei bloodstream parasites; test: Effect of inhibitors on bloodstream parasite growth (Neubauer count, 24 h); format: cell-based; conditions: Olaparib 29 nM, Rucaparib 1.5 μM, 3-AB 580 μM, Nifurtimox 2.5 μM
Protocol: Trypanosoma brucei bloodstream parasites were grown in HMI-11 medium for 24 h until reaching a density of 5×10^5 cells/mL. Aliquots of 100 μL were distributed in 96-well plates and inhibitors were added at different concentrations as indicated in the figures. After an incubation period of 24 h, the parasite number was counted with a Neubauer chamber. In all experiments, triplicates were done for each condition tested and data significance was assessed by one-way Anova (GraphPad Prism5.03 version Software).

TcPARP = system: TcPARP; design: method as in PMID 23049934; conditions: read-out: potency towards TcPARP; cited from earlier work

Chain of TbPARP (Q0PW89 entry or part of it): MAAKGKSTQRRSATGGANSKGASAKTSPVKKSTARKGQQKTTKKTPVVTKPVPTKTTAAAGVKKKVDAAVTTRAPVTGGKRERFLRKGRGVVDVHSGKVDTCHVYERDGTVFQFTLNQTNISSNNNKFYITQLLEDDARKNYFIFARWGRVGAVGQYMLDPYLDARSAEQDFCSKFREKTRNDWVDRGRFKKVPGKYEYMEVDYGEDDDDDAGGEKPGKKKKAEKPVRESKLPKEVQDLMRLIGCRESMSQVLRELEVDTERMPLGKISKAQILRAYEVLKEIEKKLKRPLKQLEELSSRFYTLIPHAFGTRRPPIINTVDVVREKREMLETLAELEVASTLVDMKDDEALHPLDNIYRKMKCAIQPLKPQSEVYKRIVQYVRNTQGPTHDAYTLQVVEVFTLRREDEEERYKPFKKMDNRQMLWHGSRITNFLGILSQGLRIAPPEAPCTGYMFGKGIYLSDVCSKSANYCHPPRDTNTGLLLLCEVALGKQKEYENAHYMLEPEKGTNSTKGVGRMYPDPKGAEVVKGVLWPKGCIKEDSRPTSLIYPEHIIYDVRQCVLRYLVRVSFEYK

pIC50 (TbPARP; read-out: TbPARP IC50): 6.82 | IC50 (TbPARP; read-out: TbPARP pIC50 ± SEM (converted)): 148 nM
SMILES: CNCc1ccc(-c2[nH]c3cc(F)cc4c3c2CCNC4=O)cc1 [Rucaparib, 6-fluoro-2-{4-[(methylamino)methyl]phenyl}-3,10-diazatricyclo[6.4.1.0^{4,13}]trideca-1,4(13),5,7-tetraen-9-one]
inhibition of PAR formation in culture, procyclic form [1]: inhibited PAR formation in culture; also recorded: able to reduce PAR formation | inhibition of PAR formation in culture, bloodstream form [2]: able to inhibit PAR formations in culture; also recorded: able to reduce PAR formation | impact on growth rate of procyclic parasites ([3]; 15 μM (highest concentration)): visible impact on the growth rate | decrease in procyclic parasite growth ([3]; 15 μM, 48 h): 20% | effect on bloodstream parasite growth [4]: not able to significantly affect T. brucei growth or survival | pIC50 (TcPARP): 7.60
